# Laboratory results from article PMC3438226 (Bioorganic & medicinal chemistry, 2012).
# Assays:
# E. coli MTAN [1] = target: T1, E. coli MTAN (Escherichia coli, UniProt P0AF12); type: biochemical
# human MTAP = target: T2, human MTAP (Homo sapiens, UniProt Q13126); experiment: Inhibition of phosphorolysis of MTA catalysed by human MTAP; type: biochemical
# T2 sequence (Q13126 1-283): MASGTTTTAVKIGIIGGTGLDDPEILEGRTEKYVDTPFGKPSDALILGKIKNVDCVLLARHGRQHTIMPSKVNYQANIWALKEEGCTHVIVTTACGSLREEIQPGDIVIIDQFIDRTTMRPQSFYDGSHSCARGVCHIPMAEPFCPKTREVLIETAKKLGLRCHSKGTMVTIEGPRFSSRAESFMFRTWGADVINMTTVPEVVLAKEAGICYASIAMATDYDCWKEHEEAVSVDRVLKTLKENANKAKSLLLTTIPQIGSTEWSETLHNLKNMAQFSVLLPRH
# N. meningitidis MTAN [2] = target: T3, N. meningitidis MTAN (Neisseria meningitidis, UniProt Q9K054); experiment: Inhibition of hydrolysis of MTA catalysed by N. meningitidis MTAN; type: biochemical
# E. coli MTAN [3] = target: T1, E. coli MTAN; settings: read-out: Ki* E. coli MTAN; Ki* value; cited from earlier work
# N. meningitidis MTAN [4] = target: T3, N. meningitidis MTAN; settings: read-out: Ki* N. men. MTAN; Ki* value; cited from earlier work
# T1 sequence (P0AF12 whole entry): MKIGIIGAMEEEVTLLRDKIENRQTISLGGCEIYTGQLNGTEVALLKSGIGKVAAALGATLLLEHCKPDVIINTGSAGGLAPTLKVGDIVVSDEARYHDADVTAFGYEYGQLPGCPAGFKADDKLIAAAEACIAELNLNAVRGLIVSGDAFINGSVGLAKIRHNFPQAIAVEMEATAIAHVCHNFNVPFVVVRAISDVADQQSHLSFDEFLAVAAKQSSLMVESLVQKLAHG
compound,measurement,setting,value
CSCC(CO)CNCc1c[nH]c2c(N)ncnc12 (racemic) [(±)-25],times weaker inhibitor than 17 I,E. coli MTAN [1]; E. coli MTAN,1.5 fold
same,weaker binding affinity compared with 4,E. coli MTAN [1]; E. coli MTAN,~180 fold
same,weaker binding affinity compared with 4,human MTAP,approximately 110 fold
same,difference in binding affinity compared with 4,N. meningitidis MTAN [2]; N. meningitidis MTAN,9 fold
CSC[C@@H](CN(C)Cc1c[nH]c2c(N)ncnc12)[C@@H](O)CO (racemic) [(±)-68],loss of binding affinity relative to (±)-65,"E. coli MTAN [1]; E. coli MTAN, N-methylation",250 fold
same,improvement of inhibition relative to (±)-65,human MTAP; N-methylation,about 3 fold
same,loss in activity relative to (±)-65,"N. meningitidis MTAN [2]; N. meningitidis MTAN, N-methylation",~12 fold
CSC[C@H](O)[C@@H](CO)CN(C)Cc1c[nH]c2c(N)ncnc12 (racemic) [(±)-72],gain in binding affinity relative to (±)-68,E. coli MTAN [1]; E. coli MTAN,~6 fold
same,reduction in binding affinity relative to (±)-68,human MTAP,~9 fold
same,reduction in binding affinity relative to (±)-68,N. meningitidis MTAN [2]; N. meningitidis MTAN,approximately 2 fold
CSC[C@H](O)[C@@H](O)CN(C)Cc1c[nH]c2c(N)ncnc12 (racemic) [(±)-78],increase in potency relative to (±)-72,E. coli MTAN [1]; bacterial MTANs (E. coli),approximately 2 fold
same,loss in activity relative to (±)-72,human MTAP,~4 fold
same,increase in potency relative to (±)-72,N. meningitidis MTAN [2]; bacterial MTANs (N. meningitidis),approximately 2 fold
CSC[C@@H](O)[C@@H](CO)NCc1c[nH]c2c(N)ncnc12 [Compound 33],times weaker inhibitor than 17 I,E. coli MTAN [1]; E. coli MTAN,about 4 fold
CSC[C@@H](O)CNCc1c[nH]c2c(N)ncnc12 [Compound 54],drop in binding affinity relative to (±)-25,E. coli MTAN [1]; E. coli MTAN,~110 fold
CSC[C@H](CO)N[C@H](CO)c1c[nH]c2c(N)ncnc12 [Compound 79],loss of activity relative to 3,"E. coli MTAN [1]; E. coli MTAN, cleavage of 2,3 C-C bond of 3","21,500 fold"
"(1S)-1-(9-deazaadenin-9-yl)-1,4-dideoxy-1,4-imino-5-methylthio-D-ribitol [Compound 3]",Ki,E. coli MTAN [3],0.08 ± 0.02 nM
same,Ki,N. meningitidis MTAN [4],0.36 nM
